PMC9032693, “Biological Evaluation of New Thienopyridinium and Thienopyrimidinium Derivatives as Human Choline Kinase Inhibitors” (Pharmaceutics, 2022)

Assays:
MDA-MB-231 [1] = assay: Cell cycle analysis by flow cytometry; type: cell-based, human; conditions: MDA-MB-231, 1.0 µM, 48 and 72 h
Experimental: (§1) Three different cell lines (MDA-MB-231, A549, and HeLa) were used to evaluate the effect of compound Ff-35 on the cell cycle. Briefly, cells were treated with the test compound for 48 and 72 h. After this incubation period the cells were trypsinized, centrifuged, and fixed by adding cold ethanol (70% v/v). Cell cycles are then acquired through a cytofluorimeter (Beckman Coulter Cytomics FC500, Milano, Italy) and subsequently analyzed using MultiCycle software (Phoenix Flow Systems, San Diego, CA, USA).

HeLa [2] = assay: Cell cycle analysis by flow cytometry; type: cell-based, human; conditions: 1.0 µM, 48 and 72 h
Experimental: as §1

A549 [3] = assay: Cell cycle analysis by flow cytometry; type: cell-based, human; conditions: A549, 1.0 µM, 48 and 72 h
Experimental: as §1

HepG2 cells = assay: Choline uptake assay ([methyl-14C]choline); type: cell-based, human; conditions: HepG2, 24 h
Experimental: Choline uptake was assessed as previously reported. Briefly, HepG2 cells (200,000 cells/well) were incubated for 24 h at 37 °C with different concentrations of CKα1 inhibitors. Then, cells were exposed to [methyl-^14C]choline ([…], 31 Ci/mol) for 5 min at 37 °C. The reaction was stopped by two washes with ice-cold PBS containing 580 μM choline. The cells were solubilized in NaOH 0.1 N and the total amount of radiolabel taken up by the cells was measured by liquid scintillation using a Beckman 6000-TA counter (Madrid, Spain).

MDA-MB-231 [4] = assay: Apoptosis by annexin-V-FITC/PI flow cytometry; type: cell-based, human; conditions: MDA-MB-231, 1 and 5 µM, 72 h
Experimental: (§2) MDA-MB-231, A549, and HeLa cells were treated with compound Ff-35 for 72 h and then stained using a commercial kit (Annexin-V-Fluos, Roche Diagnostics, Milano, Italy) containing Annexin-V conjugated with fluorescein isothiocyanate and Propidium iodide (PI). All the procedures were executed according to manufacturer’s instructions. Apoptotic cells were then analyzed through a cytofluorimeter (Beckman Coulter Cytomics FC500).

HeLa [5] = assay: Apoptosis by annexin-V-FITC/PI flow cytometry; type: cell-based, human; conditions: 1 and 5 µM, 72 h
Experimental: as §2

A549 [6] = assay: Apoptosis by annexin-V-FITC/PI flow cytometry; type: cell-based, human; conditions: A549, 1 and 5 µM, 72 h
Experimental: as §2

CKα1 = target: T1, CKα1 (Homo sapiens, UniProt P35790); assay: Choline kinase assay ([methyl-14C]choline into PCho, purified enzyme); type: biochemical; conditions: for % Inhibition at 10 µM: purified CKα1, inhibitor 10 µM; for % Inhibition at 10 µM / % Inhibition at 30 µM: end-point assay; for % Inhibition at 30 µM: purified CKα1, inhibitor 30 µM
T1 construct: an N-terminally His-tagged truncated form of CKα1 (Δ75–457) was cloned into a pET-28a vector; His tag (N); made in house; host or cells: E. coli BL21 (DE3) Star
T1 sequence (P35790 75-457): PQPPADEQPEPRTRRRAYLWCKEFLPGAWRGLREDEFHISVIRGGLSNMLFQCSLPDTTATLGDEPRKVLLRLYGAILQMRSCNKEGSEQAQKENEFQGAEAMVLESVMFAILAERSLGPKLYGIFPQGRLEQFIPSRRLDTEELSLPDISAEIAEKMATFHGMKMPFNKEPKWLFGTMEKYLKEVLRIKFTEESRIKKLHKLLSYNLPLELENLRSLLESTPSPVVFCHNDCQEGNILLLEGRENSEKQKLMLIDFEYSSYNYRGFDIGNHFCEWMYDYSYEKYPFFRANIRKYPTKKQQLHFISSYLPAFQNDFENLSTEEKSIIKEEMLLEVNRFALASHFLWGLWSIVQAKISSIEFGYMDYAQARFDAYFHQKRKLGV
Experimental: The protein was produced and purified as previously described. Briefly, an N-terminally His-tagged truncated form of CKα1 (Δ75–457) was cloned into a pET-28a vector and expressed at 37 °C in E. coli BL21 (DE3) Star cells using 1 mM isopropyl β-D-1-thiogalactopyranoside (IPTG). After centrifugation, the cellular pellet was resuspended in 50 mM Tris-HCl pH 7.5, 500 mM NaCl, 0.2 mM phenylmethylsulphonyl fluoride (PMSF), DNase, and 0.5 mM β-mercaptoethanol, sonicated and subjected to a two-step purification procedure to isolate the target enzyme. […] Protein elution was completed using buffer A + 400 mM imidazole. A second size-exclusion chromatography step was then carried out to achieve complete purity. To this end, we used a HiPrep 26/60 Sephacryl 100 HR column (GE Healthcare, Little Chalfont, Buckinghamshire, UK) and a 20 mM Tris/HCl pH 7.5, 150 mM NaCl running buffer.
To study the effect of the compounds on CKα, an in vitro enzymatic assay was performed using the purified enzyme as previously reported in [19, 28, 29]. Briefly, the incorporation of ^14C from [methyl-^14C]choline into PCho in either the absence (control) or presence of different inhibitors at varying concentrations was used to determine the CK activity. The reaction mixture included 20 ng of purified CKα1, 10 mM ATP, 10 mM MgCl2, 100 mM Tris-HCl pH 8.5, and increasing concentrations of compounds. The mixture was preincubated at 37 °C for 5 min. Then, [methyl-^14C]choline chloride (1 mM, 4500 dpm/nmol) was added and the reaction was left to proceed for 10 min at 37 °C. The assay was stopped by immersing the reaction tubes in boiling water. PCho was separated by Thin Layer Chromatography using methanol/0.6% NaCl/28% NH4OH in water (50:50:5, v/v/v) as solvent. The radioactivity associated into PCho was determined in a Beckman 6000-TA (Madrid, Spain) liquid scintillation counter. The 50% inhibitory concentrations (IC50 values) were determined from the % enzyme activity at different concentrations of synthetic inhibitors relative to the control by using a sigmoidal dose–response curve (ED50plus v1.0 software).

MDA-MB-231 [7] = assay: Antiproliferative activity, resazurin assay, 72 h; type: cell-based, human
Experimental: (§3) Human cervix carcinoma (HeLa), Non-small lung adenocarcinoma (A549), Colon adenocarcinoma (HT29), and human triple negative breast cancer (MDA-MB-231) were cultured in Dulbecco’s modified Eagle’s media (DMEM). B-acute lymphoblastic leukemia (RS4;11 and SEM), T-acute lymphoblastic leukemia (Jurkat), and human promyelocytic cells (HL-60), were cultured in RPMI-1640 medium. Both media were purchased from Gibco, Life Technologies (Milan, Italy) and supplemented with 10% Fetal Bovine Serum (FBS, Invitrogen, Milan, Italy,). Every six months, each cell line was checked for the presence of mycoplasma by RT-PCR.
(§4) Stock solutions (10 mM) of the different compounds were made in DMSO. Cancer cells were seeded in tissue-treated, flat bottom, 384-well plates (Corning) according to their optimal density, (A549 1000 cells/wells; MDA-MB-231, HeLa and HT-29 2000 cells/well and finally Jurkat, HL-60 SEM and RS4;11 20.000 cells/well) in 27 µL of complete medium per well.
(§5) The day after cell seeding and immediately before cell treatment, 10 mM stock solutions of the compounds were pre-diluted to a […] concentration in 250 µL of Hank’s in a 96-well plate (Corning). Subsequent 1:5 dilutions were carried out using a microlab STAR 96-CORE liquid handling system (Hamilton), a robotized liquid handling tool that was employed for all steps, from cell seeding to drug dilution and cell treatment to ensure high reproducibility while reducing time for large screening execution. This pre-dilution step was necessary to avoid DMSO-related cytotoxicity and compound precipitation in the cell culture medium. In every case, DMSO concentration never exceeded 0.1%.
(§6) Positive (Bortezomib 1 µM) and negative (0.1% DMSO) controls were included in all the screened plates to allow for monitoring the Z’ factor throughout the entire screening. Cells were treated with 3 µL of the previously made dilutions; thus, generating a 6-point 5-fold dose–response curve starting from 10 µM. Within a plate, each drug concentration was tested in duplicate in two independent experiments for each compound.
(§7) Treated cells were then placed inside the CO2 incubator for 72 h at 37 °C. Cell viability was assessed by resazurin assay, in which 3 µL of resazurin per well were added using the previously described automated platform. Plates were placed in the incubator at 37 °C for 2 h, and then the fluorescence of each plate was read using a Spark 10 M multimode microplate reader (Tecan Group Ltd., Mannedorf, Switzerland) with 535 nm excitation wavelength and 600 nm emission wavelength.

HL-60 = assay: Antiproliferative activity, resazurin assay, 72 h; type: cell-based, human
Experimental: as §3, §4, §5, §6, §7

HT29 = assay: Antiproliferative activity, resazurin assay, 72 h; type: cell-based, human
Experimental: as §3, §4, §5, §6, §7

SEM cells = assay: Antiproliferative activity, resazurin assay, 72 h; type: cell-based, human
Experimental: as §3, §4, §5, §6, §7

Jurkat = assay: Antiproliferative activity, resazurin assay, 72 h; type: cell-based, human
Experimental: as §3, §4, §5, §6, §7

HeLa [8] = assay: Antiproliferative activity, resazurin assay, 72 h; type: cell-based, human
Experimental: as §3, §4, §5, §6, §7

RS 4;11 = assay: Antiproliferative activity, resazurin assay, 72 h; type: cell-based, human
Experimental: as §3, §4, §5, §6, §7

A549 [9] = assay: Antiproliferative activity, resazurin assay, 72 h; type: cell-based, human
Experimental: as §3, §4, §5, §6, §7

[10] = Solubility as observed in the enzyme inhibition assays; type: physicochemical; design: key to solubility (footnote b): -: The compound was not soluble; conditions: for solubility (footnote b): CK inhibition assay at 10 and 30 µM; for solubility (in words): IC50 could not be determined

Compound | % Inhibition Choline Uptake at 0.5 μM (HepG2 cells) [%] | % Inhibition Choline Uptake at 2 μM (HepG2 cells) [%] | % Inhibition at 10 µM (CKα1) [%] | % Inhibition at 30 µM (CKα1) [%] | GI50 (MDA-MB-231 [7]) [µM] | GI50 (HL-60) [µM] | GI50 (HT29) [µM] | GI50 (SEM cells) [µM] | GI50 (Jurkat) [µM] | GI50 (HeLa [8]) [µM] | GI50 (RS 4;11) [µM] | GI50 (A549 [9]) [µM] | solubility (footnote b) [10] | solubility (in words) [10] | other results
[Br-].[Br-].c1cc2c(N3CCCCCC3)nc[n+](Cc3ccc(CCCCc4ccc(C[n+]5cnc(N6CCCCCC6)c6ccsc65)cc4)cc3)c2s1 [Ff-35] | 84.99 ± 1.3 | 96.62 ± 0.316 | 90.55 | 97.80 |  |  |  |  |  |  |  |  |  |  | effect on cell cycle (MDA-MB-231 [1]): notable increase in the G1 phase accompanied by a reduction in the S phase; effect on cell cycle (HeLa [2]): notable increase in the G1 phase accompanied by a reduction in the S phase; effect on cell cycle (A549 [3]): notable increase in the G1 phase accompanied by a reduction in the S phase; % Inhibition Choline Uptake at 0.1 μM (HepG2 cells; 0.1 μM): 35.64 ± 0.7%; apoptotic cells (MDA-MB-231 [4]): significant increase in apoptotic cells in a concentration-dependent manner; apoptotic cells (HeLa [5]): significant increase in apoptotic cells in a concentration-dependent manner; apoptotic cells (A549 [6]): significant increase in apoptotic cells in a concentration-dependent manner
[Br-].[Br-].c1cc2c(N3CCCCCC3)nc[n+](Cc3ccc(CCc4ccc(C[n+]5cnc(N6CCCCCC6)c6ccsc65)cc4)cc3)c2s1 [Fg-19] |  |  |  |  | 0.5 ± 0.02 | 0.15 ± 0.01 | 1.42 ± 0.1 | 2.59 ± 0.03 | 4.72 ± 0.6 | 0.78 ± 0.02 | 1.51 ± 0.2 | 0.31 ± 0.04 | - ^b | insolubility | 
[Br-].[Br-].c1cc2c(s1)c(N1CCCCCC1)nc[n+]2Cc1ccc(CCc2ccc(C[n+]3cnc(N4CCCCCC4)c4sccc43)cc2)cc1 [Fa-23] |  |  |  |  | 1.13 ± 0.2 | 0.51 ± 0.05 | 1.56 ± 0.2 | 2.17 ± 0.02 | 6.15 ± 0.6 | 1.17 ± 0.1 | 2.08 ± 0.03 | 0.6 ± 0.06 | - ^b | insolubility | 
[Br-].[Br-].c1cc2c(N3CCCCCC3)nc[n+](Cc3ccc(OCCOc4ccc(C[n+]5cnc(N6CCCCCC6)c6ccsc65)cc4)cc3)c2s1 [Ff-36] | 71.78 ± 0.1 | 95.32 ± 0.29 | 84.47 | 96.07 | 2.26 ± 0.3 | 0.44 ± 0.02 | > 10 | 2.54 ± 0.2 | 6.2 ± 0.9 | 3.02 ± 0.4 | 2.26 ± 0.3 | 1.43 ± 0.1 |  |  | IC50 (CKα1; concentration required to inhibit CKα1 enzyme by 50%): 0.35 ± 0.05 µM
